Test results taken from article PMC4865820, “Branched Peptide, B2088, Disrupts the Supramolecular Organization of Lipopolysaccharides and Sensitizes the Gram-negative Bacteria” (Scientific Reports, 2016).
Read-outs that look alike come from different tables or passages of the source. Positions of bridges follow the written chain, without caps; N, C: chain ends. Non-standard residues stand in square brackets, D forms with d. Residues, ends and D or L forms follow the SMILES beside them. Chains are numbered I, II in the order given. *: point of attachment. X1 = CC[C@H](C)CCCCC(=O)*; Dab = NCC[C@H](N)C(=O)O

How the values were obtained:
Format in all cases: cell-based
[1] = tested on: P. aeruginosa ATCC 9027; assay: Outer membrane permeability assay (NPN); details: no unit in table; Fig. S5 axis [Peptide], μM; 10 μM NPN, 5 mM HEPES pH 7.4, ex 355/em 405 nm; average of two titrations; read-out: PC50 (peptide concentration for half-maximal NPN intensity, OM permeability)
Summary of the method: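 Overnight MHB-grown cells were washed and resuspended in 5 mM HEPES pH 7.4 to OD600 0.200, then loaded with 10 μM NPN (final), with peptide titrated in after dye stabilization. Fluorescence ex 355/em 405 nm; PC50 is the peptide concentration giving half-maximal intensity, from a sigmoidal fit averaged over two titrations.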

[2] = tested on: K. pneumoniae ATCC10031
Summary of the method: (§1)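 Peptides two-fold diluted in Mueller-Hinton Broth (0.0976–50 μg/ml final) against 10^5–10^6 CFU/ml inoculum, 37 °C for 24 h with OD600 monitored every 30 min. MIC = lowest concentration with no visible growth; two independent duplicates.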

[3] = tested on: P. aeruginosa 23155
Summary of the method: as §1

[4] = tested on: E. coli D21 and LPS outer core polysaccharide truncated mutant strains; assay: MIC ratio against LPS-truncated E. coli mutants; details: oligosaccharide-truncated mutants vs wild type D21; increase seen against D21e9 lacking outer core polysaccharides
Text: LPS is a complex glycosylated lipid molecule comprising of a hydrophobic lipid A and core oligosaccharides. The core oligosaccharides are structurally divided into an inner core (lipid A proximal) region and an outer core O-antigen region (Fig. 4a). To ascertain if the alterations in OM polysaccharides modify the barrier penetration and antimicrobial properties of the peptides, we determined the MIC of the peptides against 4 cell-wall defective mutants of E. coli (Fig. 4a). We report the MIC ratio (i.e., MICmut/MICwt) which is the ratio of MIC of peptides/antibiotics against oligosaccharides truncated mutant strains over MIC of wild type (D21) strains. For antibiotics that access intracellular targets through porin pathways or peptides that bind to the lipid A part of the LPS, the MIC ratio is independent of LPS truncation (Fig. 4b). However, antibiotics or peptides which interact with outer or inner core polysaccharides of the LPS are expected to show changes in the MIC ratio.
All the peptide congeners were purchased from M/s. Mimotopes Pty Ltd, Australia. The peptides were used as such and the homogeneity of peptides were confirmed by HPLC. Unless otherwise stated all the chemicals and the antibiotics tested were purchased from Sigma Aldrich (Singapore) Pte Ltd. The florescent probe, BODIPY TR cadaverine (BC) was purchased from Molecular Probes/ Invitrogen (CA, USA). E. coli LPS outer core polysaccharide truncated mutant strains were obtained from CGSG, The Coli Genetic Stock Centre, Yale University, […], USA. Relevant genotype of the strains are, D21 (rfa+); D21e19 (rfa-11) is a deficient mutant in carbohydrates close to the O-antigen part; D21e7 (rfa-1) is deficient in galactose as well as O-antigen; D21f1 (rfa-1, rfa21) lacks phosphate groups in the LPS has glucose and heptose intact; D21f2 (rfa-1, rfa-31) is deficient in heptose of the inner core[57][58].
MIC of each peptide was determined using the microdilution method in a 96 well microtitre plates (SPL Life Sciences Co., Ltd, Korea). Two-fold serial dilutions of each peptide in Mueller-Hinton Broth (MHB) was prepared from a 1 mg/ml stock solution of the peptide in the same broth, to obtain a final concentration in the range of 0.0976–50 μg/ml in each well. Bacterial suspensions (P. aeruginosa ATCC 27853, P. aeruginosa 4877, P. aeruginosa 23155, K. pneumoniae ATCC 10031 and K. pneumoniae 4299) were prepared by suspending the overnight cultured bacteria in saline and adjusting the inoculum to ~10^8 colony forming units (CFU) per ml. A further 150-fold dilution was then prepared in MHB to achieve a final cell density of 10^5–10^6 CFU/ml. In each well, 100 μl of inoculum was mixed with the equal volume of peptides at their 2× concentration. Positive and negative controls contained 200 μl of inoculum (without any peptide) and broth alone (no peptide/inoculum) respectively. Another negative control in which MHB containing 200 μl of peptide alone in its highest concentration tested (50 μg/ml) was also included to ensure that the optical density measured in the test wells was not due to turbidity of the peptides in solution. The 96 well polystyrene plates were then incubated at 37 °C for 24 h and the optical density at 600 nm (OD600) was measured every 30 min continuously using a TECAN microplate reader (TECAN Infinite 200, Austria). All the experiments were performed in two independent duplicates and the MIC was determined as the lowest peptide concentration in which no visible growth was observed.

[5] = MHB, 10^5–10^6 CFU/ml, 37 °C, 24 h, two independent duplicates

Structure (SMILES): CC(C)[C@H](NC(=O)[C@H](CCCCN)NC(=O)[C@H](CCCNC(=N)N)NC(=O)CNC(=O)[C@@H](N)CCCNC(=N)N)C(=O)N[C@H](C(=O)N[C@@H](CCCNC(=N)N)C(=O)N[C@@H](CCCNC(=N)N)C(=O)NCCCC[C@H](NC(=O)[C@H](CCCNC(=N)N)NC(=O)[C@H](CCCNC(=N)N)NC(=O)[C@@H](NC(=O)[C@@H](NC(=O)[C@H](CCCCN)NC(=O)[C@H](CCCNC(=N)N)NC(=O)CNC(=O)[C@@H](N)CCCNC(=N)N)C(C)C)C(C)C)C(=O)N[C@@H](CCCCN)C(=O)O)C(C)C [B2088] (I: H-RGRKVVRRKK-OH / II: H-RGRKVVRR; amide I:9-II:C; N-terminus and C-terminus assumed)
- EC50 [1]: 13.2 ± 0.4 µM
- Minimum Inhibitory Concentration against K. pneumoniae ATCC10031 ([2]; ATCC10031, 24 h): 1.4 µM
- Minimum Inhibitory Concentration against P. aeruginosa 23155 ([3]; 23155, 24 h): 1.4 µM
- MIC ratio (MICmut/MICwt) [4]: no apparent change

Structure (SMILES): CC[C@H](C)CCCCC(=O)N[C@@H](CCN)C(=O)N[C@H](C(=O)N[C@@H](CCN)C(=O)N[C@H]1CCNC(=O)[C@H]([C@@H](C)O)NC(=O)[C@H](CCN)NC(=O)[C@H](CCN)NC(=O)[C@H](CC(C)C)NC(=O)[C@@H](Cc2ccccc2)NC(=O)[C@H](CCN)NC1=O)[C@@H](C)O [Polymyxin B, polymyxin B, reference compound] (X1-[Dab]T[Dab][Dab][Dab][dF]L[Dab][Dab]T; lactam 4-C (inferred); N-terminus assumed)
- EC50 [1]: 5.82 ± 0.6 µM
- Minimum Inhibitory Concentration against K. pneumoniae ATCC10031 [2, 5]: 0.57 µM
- Minimum Inhibitory Concentration against P. aeruginosa 23155 [3, 5]: 0.57 µM
- MIC ratio (MICmut/MICwt) [4]: did not show any change

Structure (SMILES): NC[C@H]1O[C@H](O[C@H]2[C@H](O)[C@@H](O[C@H]3O[C@H](CO)[C@@H](O)[C@H](N)[C@H]3O)[C@H](N)C[C@@H]2N)[C@H](N)C[C@@H]1O [Tobramycin]
- MIC ratio (MICmut/MICwt) [4]: marked increase
